Laboratory results: article PMC10498670

Experiments:
[1] = Multicomponent nitrilium-trapping macrocyclisation: Pro NH + EtCHO (1.5 equiv), Pinc2 (ethyl 2-isocyano-2-(triphenylphosphanylidene)acetate, 1.5 equiv), AcOH (0.1 equiv); carboxylate traps the nitrilium, then Wittig to the oxazole (18 h); conditions: the molecule shown is the open-chain precursor, 1:1 DCE/MeCN, 25.0 mM, 50.0 °C, 12 steps
[2] = Multicomponent nitrilium-trapping macrocyclisation: Pro NH + EtCHO (1.5 equiv) gives an iminium, Pinc (N-isocyanoimino)triphenylphosphorane (1.2 equiv) adds, C-terminal benzoate traps the nitrilium, then aza-Wittig to the 1,3,4-oxadiazole (18 h); conditions: the molecule shown is the open-chain precursor, 1:1 DCE/MeCN, 25.0 mM, 50.0 °C, 12 steps

## Cc1cccc(NC(=O)CNC(=O)[C@H](CC(C)C)NC(=O)[C@H](C)NC(=O)CNC(=O)[C@@H]2CCCN2)c1C(=O)O [H-Pro-Gly-Ala-Leu-Gly-(2-amino-6-methylbenzoic acid)-OH]
[1]; 22-membered ring, 18.0 h
  ring closure, overall yield: 0%
[2]; 22-membered ring
  ring closure, overall yield: 18%

## CC(C)C[C@H](NC(=O)[C@H](C)NC(=O)CNC(=O)[C@@H]1CCCN1)C(=O)NCC(=O)Nc1ccccc1C(=O)O [H-Pro-Gly-Ala-Leu-Gly-(2-aminobenzoic acid)-OH]
[1]; 22-membered ring, 18.0 h
  ring closure, overall yield: 0%
[2]; 22-membered ring
  ring closure, overall yield: 15%

## Cc1c(NC(=O)CNC(=O)[C@H](CC(C)C)NC(=O)[C@H](C)NC(=O)CNC(=O)[C@@H]2CCCN2)cccc1C(=O)O [H-Pro-Gly-Ala-Leu-Gly-(3-amino-2-methylbenzoic acid)-OH]
[1]; 23-membered ring, 18.0 h
  ring closure, overall yield: 23%
[2]; 23-membered ring
  ring closure, overall yield: 25%

## CC(C)C[C@H](NC(=O)[C@H](C)NC(=O)CNC(=O)[C@@H]1CCCN1)C(=O)NCC(=O)Nc1cccc(C(=O)O)c1 [H-Pro-Gly-Ala-Leu-Gly-(3-aminobenzoic acid)-OH]
[1]; 23-membered ring, 18.0 h
  ring closure, overall yield: 35%
[2]; 23-membered ring
  ring closure, overall yield: 38%

## CC(C)C[C@H](NC(=O)[C@H](C)NC(=O)CNC(=O)[C@@H]1CCCN1)C(=O)NCC(=O)Nc1ccc(C(=O)O)c(Cl)c1 [H-Pro-Gly-Ala-Leu-Gly-(4-amino-2-chlorobenzoic acid)-OH]
[1]; 24-membered ring
  ring closure, overall yield: 0%
[2]; 24-membered ring
  ring closure, overall yield: 17%

## CC(C)C[C@H](NC(=O)[C@H](C)NC(=O)CNC(=O)[C@@H]1CCCN1)C(=O)NCC(=O)Nc1ccc(C(=O)O)cc1 [H-Pro-Gly-Ala-Leu-Gly-(4-aminobenzoic acid)-OH]
[1]; 24-membered ring
  ring closure, overall yield: 0%
[2]; 24-membered ring
  ring closure, overall yield: 18%

## CC(C)C[C@H](NC(=O)CNC(=O)[C@@H]1CCCN1)C(=O)N[C@@H](CC(=O)OC(C)(C)C)C(=O)N[C@H](C(=O)Nc1cccc(C(=O)O)c1)[C@@H](C)OC(C)(C)C [H-Pro-Gly-Leu-Asp(OtBu)-Thr(OtBu)-(3-aminobenzoic acid)-OH]
[1]; 23-membered ring, 18.0 h
  ring closure, overall yield: 21%
[2]; 23-membered ring
  ring closure, overall yield: 27%
